Literature values as cited in publication PMC7941644, “Identification and Development of Therapeutics for COVID-19” (ArXiv, 2021).

System: SARS-CoV-2

## CCC(CC)COC(=O)[C@H](C)N[P@](=O)(OC[C@H]1O[C@@](C#N)(c2ccc3c(N)ncnn23)[C@H](O)[C@@H]1O)Oc1ccccc1 [remdesivir]
  inhibition of SARS-CoV-2 in vitro: inhibit SARS-CoV-2, showing synergy with CQ in vitro
